Values quoted from earlier work as cited in patent US20210046029A1, “LEVODOPA AND CARBIDOPA INTESTINAL GEL AND METHODS OF USE” (AbbVie Inc., priority 2015, published 2021).

Molecular target: T1, peripheral dopa decarboxylase (Homo sapiens, UniProt P20711)
T1 construct: host or cells: endogenous enzyme of peripheral tissues in vivo
T1 sequence (P20711 1-480): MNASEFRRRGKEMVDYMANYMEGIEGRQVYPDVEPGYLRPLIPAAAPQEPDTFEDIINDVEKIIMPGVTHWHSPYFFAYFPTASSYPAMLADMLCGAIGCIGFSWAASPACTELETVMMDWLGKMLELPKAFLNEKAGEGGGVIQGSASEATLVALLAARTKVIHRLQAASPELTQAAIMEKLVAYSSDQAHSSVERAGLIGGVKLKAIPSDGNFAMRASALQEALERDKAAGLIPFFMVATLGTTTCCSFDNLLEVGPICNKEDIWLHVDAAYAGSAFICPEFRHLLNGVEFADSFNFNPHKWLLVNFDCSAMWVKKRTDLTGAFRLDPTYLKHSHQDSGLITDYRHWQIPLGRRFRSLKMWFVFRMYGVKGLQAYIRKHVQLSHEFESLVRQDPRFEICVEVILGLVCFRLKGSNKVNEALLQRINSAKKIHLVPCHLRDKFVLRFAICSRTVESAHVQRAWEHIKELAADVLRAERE
Settings: in vivo

C[C@@](Cc1ccc(O)c(O)c1)(NN)C(=O)O [carbidopa, (2S)-3-(3,4-dihydroxy-phenyl)-2-hydrazino-2-methylpropanoic acid]
Carbidopa dose that saturates peripheral dopa decarboxylase: 70-100 mg a day
